Source: patent US10330673B2, “Fluorescent chemical sensor for biological amines” (The Curators of the University of Missouri, priority 2013, dated 2019)

Tests used:
[1] = Fluorescence quantum yield, unbound fluorophore; format: physicochemical; conditions: no amine guest (sensor alone)
Method: Steady-state fluorescence spectroscopic studies were performed using a Horiba Scientific Fluorolog-3 Model FL3C-111 spectrofluorometer and data was collected and analyzed using HJY FluorEssence™ 3.5.1.20 software package. UV-visible spectra were obtained on a Varian Cary 1E UV-visible spectrophotometer. A stock solution of each benzene- or thiophene-based coumarin-3-aldehyde derivative (1 μM) in buffer (25 mM HEPES, 50 mM Na2S2O3, pH=5.0) was prepared. Each solution contained 1% (v/v) DMSO as a cosolvent except as noted. The slit width was 2 nm for both excitation and emission. The bound benzene- and thiophene-coumarin-3-aldehyde derivatives contained 500 mM glutamate (pH=5.0).
To determine the relative quantum yield of fluorescence (Φfl) for the benzene-based derivatives, a 1.0 μM solution of fluorescein (absolute Φfl=0.85) in 0.1 N NaOH (pH 13) was used as a fluorescence standard. The unbound derivatives were excited at 473 nm and the bound derivatives were excited at 488 nm. To determine the relative quantum yield of fluorescence (Φfl) for the thiophene-based derivatives, a 1.0 μM solution of rhodamine B (absolute Φfl=0.31) in water (pH 7) was used as a fluorescence standard. The unbound derivatives were excited at 473 nm and the bound derivatives were excited at 515 nm. Quantum yields were obtained in triplicate and calculated as per the following equation: […]

[2] = system: epinephrine-enriched chromaffin cells; assay: Live-cell confocal imaging with Compound I-2, epinephrine-enriched cells; format: cell-based, bovine; conditions: 0.1 μM
Method: Chromaffin cells were separated into norepinephrine-enriched and epinephrine-enriched fractions by centrifugation on a Percoll gradient. Both populations were independently incubated with a 0.1 μM solution of Compound I-2 at 37° C. for 30 minutes and then washed to remove excess sensor and plated.
Chromaffin cells were isolated from bovine adrenal glands as previously described. Following centrifugation at 18° C. at 13,000 rpm for 45 minutes in the Percoll gradient, chromaffin cells separate into fractions enriched with either epinephrine-enriched cells (denser band) and norepinephrine-enriched cells (lighter band). Moro, M. A.; Lépez, M. G.; Gandía, L.; Michelena, P.; Garcia, G. Separation and culture of living adrenaline- and noradrenaline-containing cells from bovine adrenal medullae. Anal. Biochem. 1990, 185, 243-248. Over 90% of the catecholamine content found in the cells in the denser fraction are epinephrine, whereas approximately 67% of the catecholamine content in the lighter fraction are norepinephrine. Liu, X.; Barizuddin, S.; Shin, W.; Mathai, C. J.; Gangopadhyay, S.; Gillis, K. D. Microwell device for targeting single cells to electrochemical microelectrodes for high-throughput amperometric detection of quantal exocytosis. Anal. Chem. 2011, 83, 2445-2451. The two cell fractions were collected from the Percoll gradient with careful pipetting and separately cultured. […]

[3] = system: NE-enriched chromaffin cells; assay: Fixed-cell staining with I-2 and anti-PNMT antibody, NE-enriched cells; format: cell-based, bovine; conditions: 1 μM, fixed in 4% paraformaldehyde, visualized at 525 nm
Description: To further validate the selectivity of the inventive sensor, the inventive detection method is validated with an established procedure in which phenylethanolamine N-methyltransferase (PNMT) is stained with an antibody and visualized with a Cy3-conjugated secondary antibody. It has been shown that epinephrine-enriched cell populations gave the highest level of PNMT staining, while norepinephrine-enriched populations gave lower staining (ca. 20% of that with epinephrine-enriched cells). For this experiment, three populations of chromaffin cells (norepinephrine-enriched, epin ephrine-enriched, and mixed) were stained with Compound I-2 and fixed in 4% paraformaldehyde. The fixed cells were stained with the anti-PNMT and secondary antibodies.
Chromaffin cells were isolated from bovine adrenal glands as previously described. […]
NE-enriched cells, EP-enriched cells and mixed cells stained with I-2 (1 μM) and plated on 0.0025% Poly (1-lysine) coated cover slips, after three washed with pre-warmed phosphate-buffered saline (pH=7.4, PBS), were fixed in 4% paraformaldehyde (Sigma, St. Louis, Mo., USA) in PBS for 60 min at room temperature (RT), followed by 6 min in methanol chilled to −20° C. […] After three washed in PBS, bound antibody was detected using Cy™3-conjugated AffiniPure Donkey Anti-Rabbit (1:150 dilution, Jackson ImmunoResearch Laboratories, Inc, Nest Grove, Pa., 19390). […]

[4] = Binding affinity toward free primary amines

CCN(CC)c1ccc2c(-c3ccc(OC)cc3)c(C=O)c(=O)oc2c1 [Compound I-2, 7-diethylamino-3-formyl-4-(4′-methoxyphenyl)coumarin]
Quantum Yield (Φ) [1]: 0.0029 | cell fluorescence, confocal microscopy ([2]; 37° C., 30 minutes, 488 nm excitation (bound sensor)): marginal fluorescence | cell fluorescence, confocal microscopy ([2]; excited at 440 nm (unbound sensor)): No significant fluorescence | staining of fixed cells by sensor [3]: stain brightly | binding affinities toward free primary amines [4]: ~10 M⁻¹
